Data as given in publication PMC4374867, “The Novel Tubulin Polymerization Inhibitor MHPT Exhibits Selective Anti-Tumor Activity against Rhabdomyosarcoma In Vitro and In Vivo” (PLoS ONE, 2015).

Test system: T1, tubulin (alpha- and beta-tubulin)
T1 construct: with alpha-/beta-tubulin heterodimer
Test: cell-free fluorescence-based tubulin polymerization assay (Cytoskeleton BK011P)
Assay type: biochemical, Bos taurus

**Q.** Which IC50 does the source give for `COc1cccc(C=C2SC(=Nc3ccc(O)cc3)NC2=O)c1` [MHPT, 2-((4-hydroxyphenyl)imino)-5-(3-methoxybenzylidene)thiazolidin-4-one] here?
**A.** The IC50 was 6.28 µM.
